The target of assay [1] is T1, Human PDGFRβ, cytoplasmic domain (GST-PDGFRβ) (Homo sapiens, UniProt P09619).
T1 construct: made in house
As to the kind of experiment: Human PDGFRβ biochemical inhibition assay (off-chip Mobility Shift Assay). The method, boiled down:
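GST-tagged cytoplasmic domain (aa 557-1106) from baculovirus was incubated 1 h at room temperature with compound, CSKtide, ATP at Km and Mg²⁺ in HEPES buffer, pH 7.5. Phosphorylated and unphosphorylated peptide were separated by off-chip mobility shift, and the product ratio P/(P+S) gave percent inhibition.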

Assay [2] concerns the target T2, Human PDGFRα, cytoplasmic domain (GST-PDGFRα) (Homo sapiens, UniProt P16234).
T2 construct: made in house
Kind of assay: Human PDGFRα biochemical inhibition assay (off-chip Mobility Shift Assay).

T1 sequence (P09619 with tags, fused parts or gaps): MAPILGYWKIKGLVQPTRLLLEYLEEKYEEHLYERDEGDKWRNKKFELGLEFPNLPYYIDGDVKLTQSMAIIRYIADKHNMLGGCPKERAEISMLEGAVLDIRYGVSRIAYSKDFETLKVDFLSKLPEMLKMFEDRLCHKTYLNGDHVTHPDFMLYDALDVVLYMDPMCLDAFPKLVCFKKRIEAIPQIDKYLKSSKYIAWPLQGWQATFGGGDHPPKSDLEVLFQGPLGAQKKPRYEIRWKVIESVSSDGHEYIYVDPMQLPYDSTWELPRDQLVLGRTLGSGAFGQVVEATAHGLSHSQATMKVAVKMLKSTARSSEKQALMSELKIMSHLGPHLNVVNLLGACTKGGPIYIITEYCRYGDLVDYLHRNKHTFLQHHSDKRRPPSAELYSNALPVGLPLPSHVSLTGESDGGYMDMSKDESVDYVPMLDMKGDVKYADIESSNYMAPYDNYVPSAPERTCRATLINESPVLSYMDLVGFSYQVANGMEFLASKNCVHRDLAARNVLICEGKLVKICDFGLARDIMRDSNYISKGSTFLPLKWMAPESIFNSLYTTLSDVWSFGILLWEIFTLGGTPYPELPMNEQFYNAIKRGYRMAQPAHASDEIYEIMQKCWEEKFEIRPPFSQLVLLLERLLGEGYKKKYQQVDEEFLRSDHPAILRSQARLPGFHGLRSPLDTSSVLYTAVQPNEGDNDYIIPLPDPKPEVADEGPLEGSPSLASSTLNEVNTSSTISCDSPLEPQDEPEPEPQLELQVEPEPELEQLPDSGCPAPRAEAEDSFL
T2 sequence (P16234 550-1089 T674I): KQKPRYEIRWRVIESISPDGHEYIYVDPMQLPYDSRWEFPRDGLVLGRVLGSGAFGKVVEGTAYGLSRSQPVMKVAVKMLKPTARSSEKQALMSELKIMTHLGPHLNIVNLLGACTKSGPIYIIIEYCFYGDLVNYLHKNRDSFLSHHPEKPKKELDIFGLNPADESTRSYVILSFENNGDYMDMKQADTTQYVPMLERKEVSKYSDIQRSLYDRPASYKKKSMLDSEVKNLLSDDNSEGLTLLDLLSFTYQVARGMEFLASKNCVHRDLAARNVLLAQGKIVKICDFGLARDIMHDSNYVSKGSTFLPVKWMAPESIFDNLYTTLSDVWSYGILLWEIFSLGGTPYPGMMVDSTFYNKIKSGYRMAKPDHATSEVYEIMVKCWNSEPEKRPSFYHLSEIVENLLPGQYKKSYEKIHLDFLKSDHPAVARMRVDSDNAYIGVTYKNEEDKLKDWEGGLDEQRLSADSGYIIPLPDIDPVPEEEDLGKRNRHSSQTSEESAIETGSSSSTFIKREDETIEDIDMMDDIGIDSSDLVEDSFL

Usually IC50 stands for the concentration that inhibits the measured activity by half. For the compound `C[C@H](Nc1cnc2cnn(C)c2n1)c1cccc(NC(=O)c2cncc(S(C)(=O)=O)c2)c1` [Compound 227, (S)-N-(3-(1-((1-methyl-1H-pyrazolo[3,4-b]pyrazin-6-yl)amino)ethyl)phenyl)-5-(methylsulfonyl)nicotinamide], the IC50 in assay [1] and in assay [2] was below 300 nM each time.

With `CCn1cc2ncc(N[C@@H](C)c3cccc(NC(=O)c4cnn(CC5CC5)c4)c3)nc2n1` [Compound 300, (S)-1-(cyclopropylmethyl)-N-(3-(1-((2-ethyl-2H-pyrazolo[3,4-b]pyrazin-6-yl)amino)ethyl)phenyl)-1H-pyrazole-4-carboxamide], the IC50 in assay [1] and in assay [2] was below 300 nM throughout.

Consider `CCn1cc2ncc(N[C@@H](C)c3cc(NC(=O)c4ccc(OC5CCN(C)CC5)c(C)c4)ccc3F)nc2n1` [Compound 447, (S)-N-(3-(1-((2-ethyl-2H-pyrazolo[3,4-b]pyrazin-6-yl)amino)ethyl)-4-fluorophenyl)-3-methyl-4-((1-methylpiperidin-4-yl)oxy)benzamide], for which the 50% inhibitory concentration (IC50) in assay [1] and in assay [2] was below 300 nM in each case.

Consider `CCCOC(=O)c1ccc(C(=O)Nc2cccc([C@H](C)Nc3cnc4cnn(C)c4n3)c2)cc1C` [Compound 254, propyl (S)-2-methyl-4-((3-(1-((1-methyl-1H-pyrazolo[3,4-b]pyrazin-6-yl)amino)ethyl)phenyl)carbamoyl)benzoate], for which the IC50 in assay [1] and in assay [2] was below 300 nM each time.

Turning to `Cc1cc(C(=O)Nc2ccc(F)c([C@H](C)Nc3cnc4cnn(C)c4n3)c2)cnc1NC(C)C` [Compound 232, (S)-N-(4-fluoro-3-(1-((1-methyl-1H-pyrazolo[3,4-b]pyrazin-6-yl)amino)ethyl)phenyl)-6-(isopropylamino)-5-methylnicotinamide], the IC50 in assay [1] and in assay [2] was below 300 nM in each case.

`CCn1cc2ncc(N[C@@H](C)c3cccc(NC(=O)Nc4cnn(CC(C)C)c4)c3)nc2n1` [Compound 740, (S)-1-(3-(1-((2-ethyl-2H-pyrazolo[3,4-b]pyrazin-6-yl)amino)ethyl)phenyl)-3-(1-isobutyl-1H-pyrazol-4-yl)urea]: the values for the IC50 in assay [1] and in assay [2] were 300 to 1000 nM and below 300 nM, respectively.

On to `CCn1cc2ncc(N[C@@H](C)c3cccc(NC(=O)c4ccc(CN5CC[C@H](F)C5)c(Cl)c4)c3)nc2n1` [Compound 484, 3-chloro-N-(3-((S)-1-((2-ethyl-2H-pyrazolo[3,4-b]pyrazin-6-yl)amino)ethyl)phenyl)-4-(((S)-3-fluoropyrrolidin-1-yl)methyl) benzamide], for which the IC50 in assay [1] and in assay [2] was below 300 nM in each case.

Regarding `Cc1c[nH]c2ncc(N[C@@H](C)c3cccc(NC(=O)c4ccc(OC(F)(F)F)nc4)c3)nc12` [Compound 568, (S)-N-(3-(1-((7-methyl-5H-pyrrolo[2,3-b]pyrazin-2-yl)amino)ethyl)phenyl)-6-(trifluoromethoxy)nicotinamide], the IC50 was at least 1000 nM in assay [1] and 300 to 1000 nM in assay [2].

For `CCn1cc2ncc(N[C@@H](C)c3cc(NC(=O)c4ccc(Cl)c(C)c4)ccc3C)nc2n1` [Compound 508, (S)-4-chloro-N-(3-(1-((2-ethyl-2H-pyrazolo[3,4-b]pyrazin-6-yl)amino)ethyl)-4-methylphenyl)-3-methylbenzamide], the IC50 in assay [1] and in assay [2] was below 300 nM throughout.

With `C[C@H](Nc1cnc2[nH]cc(-c3cnn(C)c3)c2n1)c1cccc(NC(=O)c2ccc(C(F)(F)F)nc2)c1` [Compound 580, (S)-N-(3-(1-((7-(1-methyl-1H-pyrazol-4-yl)-5H-pyrrolo[2,3-b]pyrazin-2-yl)amino)ethyl)phenyl)-6-(trifluoromethyl) nicotinamide], the IC50 in assay [1] is below 300 nM; in assay [2] it was 300 to 1000 nM.

For the compound `C[C@H](Nc1cnc2cnn(C)c2n1)c1cccc(NC(=O)Nc2cccnc2)c1` [Compound 730, (S)-1-(3-(1-((1-methyl-1H-pyrazolo[3,4-b]pyrazin-6-yl)amino)ethyl)phenyl)-3-(pyridin-3-yl)urea], the IC50 in assay [1] was 300 to 1000 nM; in assay [2], below 300 nM.

Values taken from patent US20230102554A1 (GB002, INC., priority 2019, published 2023).
